Laboratory results reported in patent US6632978B1, “Transgenic animals for studying regulation of genes” (Novartis AG, priority 1999, dated 2003).

Key:
SEAP expression = test: Effect of inhibitory compounds on TNF-induced SEAP expression; assay type: in vivo, mouse; details: for inhibition of marker enzyme (SEAP) expression: SEAP-1 animals (Example 2), 1 mg/kg i.v.; for modification of SEAP expression: SEAP-2 animals
Description: Test 5: Effect of Inhibitory Compounds on SEAP Expression.
Clasto-lactacystine-β-lactone, a commercially available proteasome inhibitor is dissolved in DMSO (10 μl/100 μg) and further diluted with 90 μl Peg300. This mixture is further diluted 1:10 in saline and injected i.v. to animals of Example 2 at a dose of 1 mg/kg. Ten to 15 min later TNF is administered i.p. to compound-treated or untreated animals of Example 2. Blood samples are taken from the animals at baseline, 6 hours and 24 hours and SEAP levels analyzed.

[1] = test system: SEAP expression under the control of the E-selectin regulatory sequence; test: LPS and cytokine induction of SEAP expression in heterozygous mice; assay type: in vivo, mouse; details: either line (SEAP-1, SEAP-2)
Description: Test 1: LPS and Cytokine Induction of SEAP Expression in Heterozygous Mice.
Heterozygous mice of Example 1 and Example 2 are injected with LPS (Sigma, Serotype 0:111B4 Cat. L4130) at a dose of 25 μg per mouse. Murine recombinant TNFα (R&D Systems, Cat No. 410-MT) is diluted in sterile saline and administered at a dose of 500 ng/mouse. Administration is intravenously, e.g., into the tail vein, subcutaneously or intraperitoneally.
Blood for analysis is taken from a superficial vein of the mouse into heparinized glass hematocrit capillaries. The blood is centrifuged in a table-top Eppendorff centrifuge at maximal speed for 5 min to prepare plasma.
A standard curve is created with human placental alkaline phosphatase (PAP) (Sigma Cat. P-3895). A stock solution of 2 mg/ml dissolved in buffer (Tris/HCl 50 mM pH 7.4; NaCl 150 mM; BSA 1%) is stored at −80° C. in aliquots. The standard curve is diluted in mouse plasma containing Heparin. The range of the standard curve is between 0.5 and 50000 ng/mL PAP.
For the enzyme assay the Tropix Kit (Tropix, Cat. No BP300) is used.
The results are plotted in FIGS. 3 and 4. […] The maximal levels of plasma SEAP are reached at 6 hours post-stimulation in animals of Example 2, the maximum reached in animals of Example 1 is not seen until 24 hours post stimulation. SEAP-2 mice express about 1000-fold more marker enzyme than SEAourP-1 animals. […]

For CC(C)[C@H](O)[C@@]12NC(=O)[C@H](C)[C@@H]1OC2=O [clasto-lactacystine-β-lactone, Clasto-lactacystine-β-lactone], the “inhibition of marker enzyme (SEAP) expression” value (SEAP expression; 6 hours after TNF) was “significant inhibition”, the “inhibition of marker enzyme (SEAP) expression” value (SEAP expression; 24 hours after TNF) was “no effect” and the “modification of SEAP expression” value (SEAP expression; 6 hours after TNF) was “does not modify”. For the same molecule, the “modification of SEAP expression” value (SEAP expression; 24 hours after TNF) was “does not modify”.

B1: IFNg: IFNg, known not to induce E-selectin in vitro; control cytokine (protein, UniProt P01579 24-161, looked up)
Interferon gamma: QDPYVKEAENLKKYFNAGHSDVADNGTLFLGILKNWKEESDRKIMQSQIVSFYFKLFKNFKDDQSIQKSVETIKEDMNVKFFNSNKKKRDDFEKLTNYSVTDLNVQRKAIHELIQVMAELSPAAKTGKRKRSQMLFRG
For B1, the “effect on SEAP induction” value [1] was “no effect”.
